Test results reported in US8178506B2, “Oligomeric compounds and compositions for use in modulation of small non-coding RNAs” (Regulus Therapeutics Inc., priority 2003, dated 2012).
In the oligonucleotide strings, read from the 5' end, every base follows the letter of its sugar. An asterisk marks phosphorothioate; unmarked linkages are phosphodiester. Other units and linkages are bracketed, terminal groups are in braces. A string of capitals states the bases alone. e = 2'-O-(2-methoxyethyl) (MOE); [5mC] = 5-methylcytosine; d = 2'-deoxy (DNA)

Assays:
Format in all cases: cell-based, human
[1] = tested on: preadipocytes / differentiating adipocytes; assay: Adipocyte differentiation assay, markers taken together; details: differentiating adipocytes
Description: Oligomeric compounds of the invention are tested for their effects on preadipocyte differentiation. […] For the other adipocyte differentiation markers assayed, an oligomeric compound targeted to PPAR-γ, also known to inhibit adipocyte differentiation, may be used as a positive control.
Cells are transfected as described herein. […] Untreated control cells receive LIPOFECTIN™ only.
After the cells have reach confluence (approximately three days), they are exposed for an additional three days to differentiation medium (Zen-Bio, Inc., Research Triangle Park, N.C.) containing a PPAR-γ agonist, IBMX, dexamethasone, and insulin. Cells are then fed adipocyte medium (Zen-Bio, Inc.), which is replaced at 2 or 3 day intervals.
For assaying adipocyte differentiation, expression of the four hallmark genes, HSL, aP2, Glut4, and PPARγ, as well as triglyceride (TG) accumulation and leptin secretion were measured in adipocytes transfected with the uniform 2′-MOE phosphorothioate (PS) oligomeric compounds previously described. Cells are lysed on day nine post-transfection, in a guanadinium-containing buffer and total RNA is harvested. Real-time PCR is performed (Applied Biosystems, Prism 7700) on the total RNA using the following primer/probe sets for the adipocyte differentiation hallmark genes: (aP2): forward 5′-GGTGGTGGAATGCGTCATG-3′ (SEQ ID NO: 746), reverse 5′-[…]-3′ (SEQ ID NO: 747), probe 5′-FAM-[…]-TAMRA-3′ (SEQ ID NO: 748); (Glut4): forward 5′-GGCCTCCGCAGGTTCTG-3′ (SEQ ID NO: 749), reverse 5′-[…]-3′ (SEQ ID NO: 750), probe 5′-FAM-[…]-TAMRA-3′ (SEQ ID NO: 751); (HSL): forward 5′-ACCTGCGCACAATGACACA-3′ (SEQ ID NO: 752), reverse 5′-[…]-3′ (SEQ ID NO: 753), probe 5′-FAM-[…]-TAMRA-3′ (SEQ ID NO: 754); (PPAR-γ): forward 5′-[…]-3′ (SEQ ID NO: 755), reverse 5′-[…]-3′ (SEQ ID NO: 756), probe 5′-FAM-[…]-TAMRA-3′ (SEQ ID NO: 757). The amount of total RNA in each sample is determined using a Ribogreen Assay (Molecular Probes, Eugene, Oreg.), and expression levels of the adipocyte differentiation hallmark genes were normalized to total RNA. Leptin protein and triglyceride levels as well as mRNA levels for each of the four adipocyte differentiation hallmark genes are expressed relative to control levels (control=treatment with ISIS-29848 (SEQ ID NO: 737)).
In some embodiments, differentiating adipocytes were treated with uniform 2′-MOE phosphorothioate oligomeric compounds according to the methods described above, and the expression of the four hallmark genes, HSL, aP2, Glut4, and PPARγ, as well as triglyceride (TG) accumulation were measured. […] Undifferentiated adipocytes were also compared as a negative control. […] The effects of TNF-α, also known to inhibit adipocyte differentiation, were also measured.

HeLa cells = assay: Cell cycle assay in HeLa cells; details: HeLa cells; for % cells in cell cycle phase: G1 / % cells in cell cycle phase: G2/M / % cells in cell cycle phase: S / % cells in cell cycle phase: aneuploid / % cells in cell cycle phase: subG1: 48 hours after treatment, relative to untreated control (UTC=100)
A549 cells = assay: Cell cycle assay in A549 cells; details: A549 cells, 24 hours, relative to the untreated control cells in that phase
Description: In accordance with the present invention, certain oligomeric compounds targeting miRNAs were selected for dose response studies. Using the cell cycle assay described above, the cell cycle profiles of HeLa or A549 cells treated with varying concentrations of oligomeric compounds of the present invention were assessed.
Concomittent decreases in the percentage of cells in G1-phase of the cell cycle and increases in the percentage of hypodiploid (subG1) cells were also observed.
In a further study, A549 cells were treated with 25-, 50-, 100- or 150 nM of the oligomeric compounds ISIS Numbers 338637 (SEQ ID NO: 464) targeted against mir-96, and ISIS 338769 (SEQ ID NO: 596) targeted against mir-130b, ISIS 338836 (SEQ ID NO: 663) targeted against mir-23a, and ISIS 340350 (SEQ ID NO: 855) targeted against mir-95 (Mourelatos). Cells treated with increasing concentrations of oligomeric compounds were compared to untreated cells, to assess the dose-responsiveness of the observed delay or arrest. The random-mer ISIS 29848 was used as a negative control. Cells were prepared for flow cytometry 24-hours after oligonucleotide treatment. Results of these dose response studies are shown in Table 34, where data are expressed as percentage of cells in each phase relative to the untreated control cells in that phase.

T47Dp53 cells = assay: Cell cycle assay in T47Dp53 cells; details: 150 nM, 48 hours, relative to untreated control
Description: (§1) In further studies, additional cell lines were treated with oligomeric compounds targeted against miRNAs to assess the effects of each oligomeric compound on cell cycling. BJ, B16, T47D, and HeLa cells were cultured and transfected as described above. […] T47Dp53 cells are T47D cells that have been transfected with and selected for maintenance of a plasmid that expresses a wildtype copy of the p53 gene (for example, pCMV-p53; Clontech, Palo Alto, Calif.), using standard laboratory procedures. BJ cells were treated with 200 nM of each oligomeric compound, and T47D, T47Dp53, HeLa, and B16 cells were treated with 150 nM of each oligomeric compound. The human foreskin fibroblast BJ cell line represents a non-cancer cell line, while HeLa, T47D, T47Dp53 cells and the mouse melanoma cell line B16-F10 represent cancerous cell lines. For comparison, oligomeric compounds ISIS 183891 (SEQ ID NO: 847) and ISIS 285717 ([…]; herein incorporated as SEQ ID NO: 857), both targeting the kinesin-like 1/Eg5 mRNA, involved in cell cycling, were used as positive controls. The random-mer ISIS 29848 was used as a negative control. Additionally, the oligomeric compounds ISIS Number 25690 ([…]; herein incorporated as SEQ ID NO: 858) and ISIS Number 25691 ([…]; herein incorporated as SEQ ID NO: 859), targeted to nucleotides 3051-3070 and 3085-3104, respectively, of the mRNA encoding the Drosha RNase III (GenBank Accession NM_013235.2, incorporated herein as SEQ ID NO: 860) were also tested. ISIS Number 25690 and ISIS Number 25691 are 5-10-52′-MOE gapmer compounds, 20 nucleotides in length, with phosphorothioate internucleoside linkages throughout the oligomeric compound. All cytidine residues are 5-methylcytidines. Transfections were performed using the methods described herein. Cells were prepared for flow cytometry 48-hours after oligonucleotide treatment. Results of these studies are shown in Table 35, where data are expressed as percentage of cells in each phase relative to the untreated control cells in that phase.

T47D cells = assay: Cell cycle assay in T47D cells; details: 150 nM, 48 hours, relative to untreated control
Description: BJ cells were routinely cultured in MEM high glucose with 2 mM L-glutamine and Earle's BSS adjusted to contain 1.5 g/L sodium bicarbonate and supplemented with 10% fetal bovine serum, 0.1 mM non-essential amino acids and 1.0 mM sodium pyruvate (all media and supplements from Invitrogen Life Technologies, Carlsbad, Calif.). B16-F10 cells were routinely cultured in DMEM high glucose (Invitrogen Life Technologies, Carlsbad, Calif.) supplemented with 10% fetal bovine serum (Invitrogen Life Technologies, Carlsbad, Calif.). T47D cells were cultured in DMEM High glucose media (Invitrogen Life Technologies, Carlsbad, Calif.) supplemented with 10% fetal bovine serum. […] Cells were plated on collagen-coated 24-well plates (Falcon-Primaria #3047, BD Biosciences, Bedford, Mass.) at approximately 50,000 cells per well and allowed to attach to wells overnight.
as §1

[2] = 150 nM oligomeric compound, 24 hours, relative to untreated control (UTC = 100)
[3] = 150 nM, 48 hours, relative to untreated control

AACTACTTCCAGAGCAGGTGA (anti-miR; chemistry not fully specified) [ISIS 328136, uniform 2′-MOE PS; targets hypothetical miRNA-181]
expression of the other four hallmark genes (HSL, aP2, Glut4, PPARγ) ([1]; control ISIS 342673): reduction of expression of the other four hallmark genes

ATGACTACAAGTTTATGGCCA (chemistry not given here) [ISIS 328121, uniform 2′-MOE PS; targets hypothetical miRNA-161]
5 markers of adipocyte differentiation ([1]; % of UTC (Table 75)): significant increases in all 5 markers of adipocyte differentiation | five markers of adipocyte differentiation ([1]; control ISIS 342673 (Tables 17, 18)): increase in all five markers of adipocyte differentiation

338769 (antisense GCTTCCCAGCGGCCTATAGT; all 2'-MOE, all phosphorothioate, methylation of C not given here) [compound 338769]
% cells aneuploid (HeLa cells; [2]): 133% | % cells in cell cycle phase G1 (HeLa cells; [2]): 171% | % cells in cell cycle phase G2/M (HeLa cells; [2]): 103% | % cells in cell cycle phase S (HeLa cells; [2]): 61% | % cells in cell cycle phase subG1 (HeLa cells; [2]): 188% | % cells in cell cycle phase: G1 (HeLa cells; 150 nM oligomeric compound): 76% | % cells in cell cycle phase: G2/M (HeLa cells; 150 nM oligomeric compound): 149% | % cells in cell cycle phase: S (HeLa cells; 150 nM oligomeric compound): 116% | % cells in cell cycle phase: aneuploid (HeLa cells; 150 nM oligomeric compound): 194% | % cells in cell cycle phase: subG1 (HeLa cells; 150 nM oligomeric compound): 482% | % cells in cell cycle phase: G1 (A549 cells; 25 nM): 101% | % cells in cell cycle phase: G2/M (A549 cells; 25 nM): 114% | % cells in cell cycle phase: S (A549 cells; 25 nM): 94% | % cells in cell cycle phase: aneuploid (A549 cells; 25 nM): 101% | % cells in cell cycle phase: subG1 (A549 cells; 25 nM): 62% | % cells in cell cycle phase: G1 (A549 cells; 50 nM): 114% | % cells in cell cycle phase: G2/M (A549 cells; 50 nM): 122% | % cells in cell cycle phase: S (A549 cells; 50 nM): 81% | % cells in cell cycle phase: aneuploid (A549 cells; 50 nM): 132% | % cells in cell cycle phase: subG1 (A549 cells; 50 nM): 82% | % cells in cell cycle phase: G1 (A549 cells; 100 nM): 124% | % cells in cell cycle phase: G2/M (A549 cells; 100 nM): 113% | % cells in cell cycle phase: S (A549 cells; 100 nM): 75% | % cells in cell cycle phase: aneuploid (A549 cells; 100 nM): 157% | % cells in cell cycle phase: subG1 (A549 cells; 100 nM): 130% | % cells in cell cycle phase: G1 (A549 cells; 150 nM): 117% | % cells in cell cycle phase: G2/M (A549 cells; 150 nM): 145% | % cells in cell cycle phase: S (A549 cells; 150 nM): 71% | % cells in cell cycle phase: aneuploid (A549 cells; 150 nM): 184% | % cells in cell cycle phase: subG1 (A549 cells; 150 nM): 341% | % cells in cell cycle phase G1 (T47Dp53 cells): 103% | % cells in cell cycle phase G2/M (T47Dp53 cells): 123% | % cells in cell cycle phase S (T47Dp53 cells): 87% | % cells in cell cycle phase aneuploid (T47Dp53 cells): 87% | % cells in cell cycle phase subG1 (T47Dp53 cells): 116%

328687 (eG*e[5mC]*eT*eT*e[5mC]*d[5mC]*d[5mC]*dA*dG*d[5mC]*dG*dG*d[5mC]*d[5mC]*dT*eA*eT*eA*eG*eT; antisense) [compound 328687]
% cells aneuploid (HeLa cells; [2]): 149% | % cells in cell cycle phase G1 (HeLa cells; [2]): 80% | % cells in cell cycle phase G2/M (HeLa cells; [2]): 131% | % cells in cell cycle phase S (HeLa cells; [2]): 98% | % cells in cell cycle phase subG1 (HeLa cells; [2]): 231% | % cells in cell cycle phase: G1 (HeLa cells; 150 nM oligomeric compound): 55% | % cells in cell cycle phase: G2/M (HeLa cells; 150 nM oligomeric compound): 131% | % cells in cell cycle phase: S (HeLa cells; 150 nM oligomeric compound): 174% | % cells in cell cycle phase: aneuploid (HeLa cells; 150 nM oligomeric compound): 171% | % cells in cell cycle phase: subG1 (HeLa cells; 150 nM oligomeric compound): 1119% | % cells in cell cycle phase G1 (T47D cells): 101% | % cells in cell cycle phase G2/M (T47D cells): 115% | % cells in cell cycle phase S (T47D cells): 92% | % cells in cell cycle phase aneuploid (T47D cells): 169% | % cells in cell cycle phase subG1 (T47D cells): 142%

25690 (antisense eA*eT*e[5mC]*e[5mC]*e[5mC]*dT*dT*dT*d[5mC]*dT*dT*d[5mC]*d[5mC]*dG*d[5mC]*eA*eT*eG*eT*eG) [compound 25690]
% cells in cell cycle phase G1 (HeLa cells; [3]): 119% | % cells in cell cycle phase G2/M (HeLa cells; [3]): 87% | % cells in cell cycle phase S (HeLa cells; [3]): 89% | % cells in cell cycle phase aneuploid (HeLa cells; [3]): 140% | % cells in cell cycle phase subG1 (HeLa cells; [3]): 64% | % cells in cell cycle phase G1 (T47D cells): 97% | % cells in cell cycle phase G2/M (T47D cells): 113% | % cells in cell cycle phase S (T47D cells): 80% | % cells in cell cycle phase aneuploid (T47D cells): 140% | % cells in cell cycle phase subG1 (T47D cells): 97% | % cells in cell cycle phase G1 (T47Dp53 cells): 97% | % cells in cell cycle phase G2/M (T47Dp53 cells): 114% | % cells in cell cycle phase S (T47Dp53 cells): 108% | % cells in cell cycle phase aneuploid (T47Dp53 cells): 144% | % cells in cell cycle phase subG1 (T47Dp53 cells): 193%
